Data reported in paper PMC11983575, “Study on the synthesis and biological activity of kojic acid triazol thiosemicarbazide Schiff base derivatives” (Journal of Enzyme Inhibition and Medicinal Chemistry, 2025).
“Also recorded” adds a separate entry of the source.

Key:
[1] = ABTS radical cation scavenging activity assay; conditions: 734 nm; read-out: ABTS+/IC50 (μM) ± SD
Experimental: ABTS free radical scavenging activity was performed according to the procedure described by Zhang et al.[40] Test solution of ABTS decolourisation assay was prepared by mixing 2.45 mM potassium persulfate and 7 mM ABTS at 8:12 volume/volume ratio. The working solution was kept in the dark at room temperature for 12–18 h. Before ABTS radical scavenging test, the ABTS test solution was diluted with DMSO to absorbance of 0.7 (±0.02) at 734 nm. One millilitre of diluted ABTS test solution was added to 10 μl of DMSO or test sample. After initial mixing, the working solution was kept in the dark at room temperature for 2–6 min, and the absorbance was measured at 734 nm. This test was carried out in triplicate. DMSO was used as a control. Ascorbic acid was used as antioxidant standard for comparison of the activity. The absorbance of test samples was calculated by the following formula. ABTS scavenging ability %=absorbance of standard−absorbance of sample/absorbance of standard×100.

[2] = target: T1, tyrosinase (Agaricus bisporus, UniProt C7FF04); assay: Fluorescence quenching of tyrosinase (Stern-Volmer); format: binding; conditions: for KSV / Kq: Stern-Volmer
T1 construct: purchased Sigma-Aldrich Chemical Co. (Shanghai, China)
Experimental: To investigate fluorescence quenching role of inhibitor to the tyrosinase, fluorescence experiments were carried according to the reported method. To determine the linear concentration range of the fluorescence, compound 6w was first dissolved in DMSO. The concentration of the solution was 10 mM, and then was diluted with sodium phosphate buffer. The ultimate concentration was changed from 0 to 50 μM. A series of 3 ml solutions containing 1.5 ml of tyrosinase solution were added to a centrifuge tube and then accurately mixed with different concentrations of 6w solution range from 0 to 50 μM. Cary Eclipse G9800A fluorescence spectrophotometer (Agilent Technologies Co., Santa Clara, CA) was employed to detect the fluorescence intensity. The excitation wavelength was set to 280 nm, the bath was set as three temperatures (292 K, 298 K, and 304 K) with a scanning wavelength change from 300 to 500 nm. The excitation and emission bandwidths were 5 nm. The final tyrosinase concentration was 0.05 mg/ml.
Fluorescence quenching means that some small molecule compounds bind to protein that can affect the fluorescence intensity of the fluorophore. Therefore, in order to obtain information about conformational changes of enzymes, fluorescence spectroscopy has become a very important research tool. With increasing concentrations of compound 6w, the dramatically decreasing fluorescence intensity of tyrosinase could be found. […] At the same time, there was no significant red shift or blue shift in the fluorescence emission peak of tyrosinase after the addition of compound 6w. […] The quenching of the intrinsic fluorescence provided a direct and clear evidence that the inhibitor 6w was capable of binding to tyrosinase, and the binding of 6w to tyrosinase led to change in the microenvironment around the fluorophore, and the detailed KSV values are summarised Table 2.
Figure 3. (A) Changes in the tyrosinase fluorescence at different concentrations of compound 6w (λex = 280 nm, T = 298 K). The final enzyme concentration was 0.05 mg/ml, and c (compound 6w) = 0 μM, 5 μM, 15 μM, 20 μM, 25 μM, 30 μM, 35 μM, 40 μM, 45 μM, and 50 μM for the curves from top to bottom, respectively. (B) The Stern–Volmer figure of compound 6w and tyrosinase at 292, 298, and 304 K.

[3] = tested on: fresh-cut apples; assay: Effects on the browning process of fresh-cut apples; parameters: species or system Fuji apples; conditions: 6w 25, 50, 100 μM; storage at 5 °C for five days; kojic acid and vitamin C 50 μM as positive controls
Experimental: Fuji apples were planted in Yantai, China, and were bought from Walmart supermarket in Shaoyang, China. The apples were come from the same batch having similar shapes, maturity, and without injuries, rot, diseases, or pests. Apples were cut into thin pieces with same size by using a sharp knife. Then, the fresh-cut slices were divided randomly into different groups: blank control group was immersed in ethanol for 10 min at room temperature, treatment groups were dipped in the solution of compound 6w under the same conditions, positive groups were dipped in 50 μM kojic acid and 50 μM vitamin C under the same conditions. The test samples were air-dried naturally and immediately were separately packaged with polyethylene clam-packs, and stored at 2–8 °C, and used for the following experimental measurements.
According to the reported protocol, the colour of apple samples was tested by a CR-400 Minolta […] instrument (Konica Minolta, Osaka, Japan). Three data of L*, a*, and b* were recorded for each sample. The L* values indicate lightness, the a* values show reddish-greenish, the b* values represent yellowish-bluish. The colour measurement was carried out in triplicate by random sampling.
Therefore, we further evaluated its anti-browning effect on apple, in which kojic acid and vitamin C were used as positive control. […]

T1 sequence (C7FF04 1-392 limits assumed): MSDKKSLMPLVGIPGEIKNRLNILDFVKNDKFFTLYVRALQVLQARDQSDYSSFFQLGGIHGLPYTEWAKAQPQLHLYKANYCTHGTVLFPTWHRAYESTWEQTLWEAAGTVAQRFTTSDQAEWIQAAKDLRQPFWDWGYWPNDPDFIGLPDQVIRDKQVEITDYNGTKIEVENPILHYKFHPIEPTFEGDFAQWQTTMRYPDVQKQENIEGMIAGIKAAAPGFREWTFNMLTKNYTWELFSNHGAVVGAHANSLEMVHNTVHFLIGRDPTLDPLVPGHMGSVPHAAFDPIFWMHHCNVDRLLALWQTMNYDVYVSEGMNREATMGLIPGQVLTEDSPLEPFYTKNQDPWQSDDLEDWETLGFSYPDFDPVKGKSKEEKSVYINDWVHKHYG

2-(1-(4-((1-((5-Hydroxy-4-oxo-4H-pyran-2-yl)methyl)-1H-1,2,3-triazol-5-yl)methoxy)phenyl)ethylidene)hydrazinecarbothioamide [Compound 6w]
IC50 [1]: 3.03 ± 0.009 µM | fluorescence quenching mechanism ([2]; 292, 298 and 304 K): dynamic quenching | KSV ([2]; T 292 K): 0.03005 L/µmol | Kq ([2]; T 292 K): 3.0052e+13 M⁻¹ s⁻¹ | KSV ([2]; T 298 K): 0.04605 L/µmol | Kq ([2]; T 298 K): 4.6048e+13 M⁻¹ s⁻¹ | KSV ([2]; T 304 K): 0.06529 L/µmol | Kq ([2]; T 304 K): 6.5292e+13 M⁻¹ s⁻¹ | anti-browning effect on fresh-cut apple (L* values, colour) [3]: potent anti-browning agent; also recorded: better than that of kojic acid and ascorbic acid; also recorded: some anti-browning effect
